“Also recorded” adds a separate entry of the source.
Key:
[1] = Locomotion test in naïve macaques (no viral injection); assay type: in vivo; conditions: DCZ 0.3 mg/kg i.m.
rM3Ds [2] = molecular target: T1, rM3Ds (Rattus norvegicus, UniProt P08483, A177S/A238G/A489L/DEL261-437/DEL441-478/E258S/I253V/I483M/INS256[…]/K178L/K182A/K255R/K484R/K486H/L173F/L482A/M480V/R171S/R176Q/R179M/S481M/T174R/T181R/T257A/Y148C)
T1 sequence (P08483 with tags, fused parts or gaps Y148C/R171S/L173F/T174R/R176Q/A177S/K178L/R179M/T181R/K182A/A238G/I253V/K255R/INS256[…]/T257A/E258S/DEL261-437/DEL441-478/M480V/S481M/L482A/I483M/K484R/K486H/A489L): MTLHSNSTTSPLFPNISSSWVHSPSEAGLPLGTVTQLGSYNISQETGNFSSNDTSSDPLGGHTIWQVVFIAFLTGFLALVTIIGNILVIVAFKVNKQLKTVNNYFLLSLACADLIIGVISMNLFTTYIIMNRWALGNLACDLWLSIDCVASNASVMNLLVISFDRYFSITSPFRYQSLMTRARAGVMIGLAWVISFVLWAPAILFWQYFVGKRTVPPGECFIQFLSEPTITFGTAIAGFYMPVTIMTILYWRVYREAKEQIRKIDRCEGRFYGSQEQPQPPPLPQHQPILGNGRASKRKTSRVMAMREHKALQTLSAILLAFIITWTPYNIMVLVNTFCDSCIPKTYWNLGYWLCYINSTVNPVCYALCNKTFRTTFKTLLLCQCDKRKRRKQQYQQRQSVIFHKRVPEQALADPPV
Method: Monkeys were continuously monitored by veterinarians after lesion.
Dyskinesia score criteria were: 0: Absent. 1: Mild, fleeting, present <30% of the observation period.
Each block included ten continuous trials.
Customized surface EMG electrodes were used for EMG recordings. […] The recording procedure was conducted immediately after DCZ infusions.

[3] = Blood test of liver- and kidney-related factors during DCZ treatment; assay type: in vivo, macaques; conditions: n=3 monkeys
Text: FIG. 36A-36F depict effects of D1-MSN activation on dyskinesia-like behavior and health state-related blood factors in parkinsonian macaques. FIG. 36A illustrates quantitation of dyskinesia score at 2 months, 4 months, and 8 months after treatment with DCZ. n=3 monkeys per group.
Intriguingly, many of the symptoms were greatly reversed after systemic deschloroclozapine (DCZ) administration. DCZ is a potent brain-penetrable agonist for rM3Ds with reduced off-targeting binding compared to CNO, and was administered to activate the DREADD system in the macaque brain.

[4] = CSF concentration of DCZ by LC-MS; conditions: 24 hours after drug infusion, 0.3 mg/kg i.m.
rM3Ds [5] = molecular target: T1, rM3Ds; assay: In vivo electrophysiological recording in caudate/putamen of anesthetized macaques, rM3Ds; set-up: 2A-EYFP (C); expressed in transfected cells; host or cells: neurons (striatal D1-MSNs) of mice or cynomolgus macaques, transduced in vivo by nigral AAV8R12-G88P7-rM3Ds-2A-EYFP; conditions: MPP+ lesioned macaques, CNO 36 cells, DCZ 31 cells
Method: • Electrophysiological recording was performed through a recording chamber while the monkey was anesthetized. Neural responses were recorded by a 16-channel linear probe (Plexon Inc, Uprobe) driven by a mechanical microdrive (Alpha Omega, FlexMT). Signals were passed through a head stage (Plexon Inc, HST/16V-G20 LN) and then split and filtered between 300 Hz and 5 kHz to identify spiking activity with an amplifier system (Plexon Inc, OmniPlex). Detected spikes were then sorted by commercially available software (Plexon Inc, Offline Sorter) for further analysis. To quantify the effect of CNO/DCZ injection, neural activity was recorded for 60 minutes following CNO/DCZ injection. The response time-course for each channel was obtained by counting the spikes within every 10-minute window and then normalizing to the maximal.
To determine the effect of CNO/DCZ injection on the direction of signal change, we performed Pearson correlation between neural responses and time using the ‘corr’ function in Matlab, which generates the correlation coefficient ‘r’ and significant level ‘p’. A neuron was considered to have “Increased” activity when r>0 and p<0.05; and considered to have “Decreased” activity when r<0 and p<0.05. Otherwise, neurons were considered to be “Unchanged” in their neural activities. The responses of all increased neurons were then averaged after being normalized by the maximal response (Crowe et al., 2014; Dai and Wang, 2018; Hirokawa et al., 2019) following CNO/DCZ injection, and then plotted as a function of time to generate the normalized population response.
To enable in-vivo verification of the strategy via an opto-tagging approach, AAV virus encoding opsin ChR2 (AAV9-EF1α-DIO-ChR2-EYFP) was injected into the striatum with simultaneous nigral infusion of a retrograde AAV encoding Cre and rM3Ds (AAV8R12-G88P7-HA-rM3Ds-2A-Cre). A total volume of 27 μl (3 μl×9 sites) and 30 μl (3 μl×10 sites) were injected in the SNr and the striatum, respectively. A recording chamber was implanted above the striatum to allow optical stimulation and electrophysiological recording.
Optogenetic verification was conducted six weeks after virus injections. A 16-channel linear probe with an embedded optic fiber (Plexon Inc., Uprobe) was used to deliver light stimulation and record neural responses. A mechanical Microdrive (FlexMT, Alpha Omega, Nazareth, Israel) was used to mount and drive the probe. A blue laser (473 nm, Changchun New Industries Tech, MBL-III-473) was used to generate light stimulation, which was controlled by a DAQ board (National Instruments, PCIe-6321) through the MonkeyLogic toolbox (NIMH version).
Light pulses of 40 Hz that last for 500 ms were used to probe neurons' responses to optical stimulation. […] Responses from these optically identified cells were grouped to generate the normalized population response as a function of time.

[6] = tested on: striatonigral projection neurons (D1 MSNs); assay: Retrograde labeling of striatal MSNs after AAV injection into the SNr, EYFP+ cell counting; assay type: in vivo, mice
Method: To improve efficiency, multiple rounds of mutations of AAV capsids were performed on a series of different serotypes. Mutations were introduced at three sites in the AAV8 capsid protein to make AAV8R, including N385D, insertion of […] (SEQ ID NO: 31) at position 588, and TS711-7121N. Two additional mutations of V183E and N41 IS were incorporated into the AAV8R12 capsid protein (FIG. 1A). The labeling pattern of the AAV8R12 capsid and G88 promoter combination was determined.
was inserted at the N587-R588 position; two other point mutations of the AAV2 Cap protein were made to develop rAAV2-retro. Similar mutations were then placed at equivalent positions for four other AAV serotypes (FIGS. 1A-1C and 25, TABLE 1), AAV1/5/6/8 (FIG. 1A). […] When administered into the SNr, 4.86±0.22 times EYFP positive MSNs in mice infected by AAV8R-hSyn-EYFP were observed as compared to those infected by rAAV2-retro-hSyn-EYFP (FIG. 2A-2C).
Baseline infectivity of rAAV2-retro was approximately 0.2±0.03×10^4 cells per striatal hemisphere (using a hSyn promoter) (TABLE 2). […] Compared to the current standard retrograde AAV, rAAV2-retro, AAV8R12 labeled 7.72±0.78-times more MSNs after nigral delivery (FIG. 2B-2C, TABLE 1). […] The AAV8R12 was generated using the AAV8R plasmid as a template.
Mice were anesthetized with sodium pentobarbital (Nembutal; 80 mg/kg, i.p.), and then placed into a stereotaxic device (KOPF). Eye cream was applied on both corneas to avoid dehydration. The skull above the targeted areas was thinned with a dental drill and carefully removed. Injections were conducted with a 10 μL syringe connected to a 33-Gauge needle (Neuros; Hamilton), using a microsyringe pump (Legato 130, KD Scientific). A total volume of 200 nL virus was injected into the SNr at a speed of 20 nL/min. The coordinates for the SNr were 3.4 mm posterior, 1.3 mm lateral, 4.8 mm ventral to the bregma.
Images were acquired using a confocal microscope (Carl Zeiss, LSM880) and an Axiolmager. Z1 microscope with apotome (Carl Zeiss). Brain structures were identified microscopically and in digital photos using a mouse brain atlas. To analyze the number of EYFP+ cells in the striatum, slices from rostral to caudal striatum were used. Every sixth section was analyzed, and numbers of EYFP+ cells were multiplied by six to acquire the approximate total number and mean number of cells per animal. Images were processed using ImageJ (NIH, USA), and final quantifications were independently performed manually by two blinded experimenters.

[7] = tested on: MSNs in nucleus accumbens; assay: Retrograde labeling of accumbal MSNs after delivery into ventral pallidum or lateral hypothalamus; assay type: in vivo, mice; conditions: stereotaxic delivery into ventral pallidum or lateral hypothalamus

Molecule	motor-related behaviors in naïve monkeys [1]	alleviation of parkinsonian symptoms during long-term treatment (rM3Ds [2]; DCZ 0.3 mg/kg every other day)	reversal of parkinsonian symptoms (PD score) (rM3Ds [2]; MPP+ macaques with AAV8R12-G88P7-rM3Ds-2A-EYFP, DCZ 0.3 mg/kg i.m., L-Dopa/benserazide 20/5 mg/kg/day oral)	motor skills (hand to mouth movement) (rM3Ds [2]; MPP+ macaques, DCZ treatment)	tremor (EMG) (rM3Ds [2]; MPP+ macaques, DCZ treatment)	dyskinesia-like behaviors (dyskinesia score) (rM3Ds [2]; MPP+ macaques, long-term treatment)	window of efficacy after each dose (alleviating symptoms after drug administration) (rM3Ds [2]; after the drug reached steady-state efficacy (FIG. 24C))	speed of reversal of symptoms, DCZ compared with levodopa (rM3Ds [2]; initial phase of drug administration)	duration of effect (FIG. 18C) (rM3Ds [2]; n=3 monkeys)	effect of an extended period (4 months) of prior L-Dopa administration on DCZ treatment (rM3Ds [2]; one month washout, then DCZ 2 months)	blood levels of common liver- and kidney-related factors (ALT, AST, GGT, CREA, BUN) [3]	DCZ level in cerebrospinal fluid [4]	cells in caudate/putamen activated (FIG. 15G) (rM3Ds [5]; saline 17.9%)	cells in caudate/putamen inactivated (FIG. 15G) (rM3Ds [5]; saline 33.4%)	cells in caudate/putamen unchanged (FIG. 15G) (rM3Ds [5]; saline 48.7%)	Labeling Efficiency in Striatonigral Pathway ([6]; AAV8R capsid mutants, numbers of labeled neurons per animal)	EYFP positive / labeled MSNs compared to rAAV2-retro ([6]; after nigral delivery, hSyn-EYFP)	labeled striatonigral projection neurons (FIG. 2C), mean±SEM ([6]; capsid comparison, injection into SNr of wild type mice, n=3 mice per group)	Mean (AAVs with capsid and promoter) ([6]; labeled cells after nigral injection in mice, b188 refers to it as cells per striatal hemisphere, SD and SEM in own columns)	labeling of MSNs in nucleus accumbens [7]
CN1CCN(C2=Nc3ccccc3Nc3ccccc32)CC1 [DCZ, Deschloroclozapine]	did not alter motor-related behaviors in naïve monkeys	consistent during an 8-month continuous treatment	reversal of canonical parkinsonian symptoms in all tested monkeys; also recorded: comparable efficiency to L-Dopa	significant recovery of motor skills; also recorded: partially restored this motor skill	great reduced or even eliminated; also recorded: removed	dyskinesia-free	at least 24 hours	faster reversal of symptoms than levodopa; also recorded: reached stable efficacy faster than L-Dopa	over 24 hr	did not affect the efficacy of DCZ treatment or the absence of dyskinesia	remained stable	no detectable levels	41.9%	9.7%	48.4%	–	–	–	–	–
AAV8R12: AAV8R capsid mutant V183E + N411S; Cap SEQ ID NO: 59 (protein) MAADGYLPDWLEDNLSEGIREWWALKPGAPKPKANQQKQDDGRGLVLPGYKYLGPFNGLDKGEPVNAADAAALEHDKAYDQQLQAGDNPYLRYNHADAEFQERLQEDTSFGGNLGRAVFQAKKRVLEPLGLVEEGAKTAPGKKRPVEPSPQRSPDSSTGIGKKGQQPARKRLNFGQTGDSESEPDPQPLGEPPAAPSGVGPNTMAAGGGAPMADNNEGADGVGSSSGNWHCDSTWLGDRVITTSTRTWALPTYNNHLYKQISNGTSGGATNDNTYFGYSTPWGYFDFNRFHCHFSPRDWQRLINNNWGFRPKRLSFKLFNIQVKEVTQNEGTKTIANNLTSTIQVFTDSEYQLPYVLGSAHQGCLPPFPADVFMIPQYGYLTLNDGSQAVGRSSFYCLEYFPSQMLRTGNSFQFTYTFEDVPFHSSYAHSQSLDRLMNPLIDQYLYYLSRTQTTGGTANTQTLGFSQGGPNTMANQAKNWLPGPCYRQQRVSTTTGQNNNSNFAWTAGTKYHLNGRNSLANPGIAMATHKDDEERFFPSNGILIFGKQNAARDNADYSDVMLTSEEEIKTTNPVATEEYGIVADNLQRGNLADQDYTKTARQAATADVNSQGALPGMVWQNRDVYLQGPIWAKIPHTDGNFHPSPLMGGFGLKHPPPQILIKNTPVPADPPTTFNQSKLNSFITQYSTGQVSVEIEWELQKENSKRWNPEIQYTSNYYKSINVDFAVNTEGVYSEPRPIGTRYLTRNL	–	–	–	–	–	–	–	–	–	–	–	–	–	–	–	+++ (10k-25k)	7.72±0.78 times	16026±1654	16026	robust labeling of MSNs

Source: US20250382346A1, “NEURONAL PROMOTERS AND USES THEREOF” (priority 2023, published 2025)
